Laboratory results reported in the supplement of paper PMC10307832.

The cell lines below were run with CN1CCN(CC1)C2=CC(=C(C=C2)NC3=NC=C4C(=N3)N(C5=CC=CC=C5C(=O)N4C)C)OC [XMD8-85] (assay: relative viability (nuclei count vs DMSO), 5 days (fraction); higher = more cells survive). Details: 0.08 µM.
Procedure, shortened: (§1)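 For viability, nuclei in each treated well were divided by nuclei in vehicle wells and the median across plates was taken. Lung cancer cell lines in 1536-well plates were pinned with five library-drug doses (not always all listed) spaced by √10, cultured 5 days without medium change, and imaged at 4× after Hoechst staining, with plates passing only at control CV below 25% and at least one doubling.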

Cell Line	relative viability
LXF-289	0.996
NCI-H23	0.917
NCI-H322M	0.906
NCI-H358	0.881
NCI-H460	0.998
NCI-H520	0.99
NCI-H596	0.946
NCI-H647	0.991
NCI-H650	0.989
NCI-H661	1
NCI-H727	0.883
NCI-H838	0.951
NCI-H1299	1.06
NCI-H1355	0.995
NCI-H1395	0.893
NCI-H1437	1

Cell Line	relative viability
NCI-H1563	1.06
NCI-H1650	0.974
NCI-H1651	1.06
NCI-H1666	0.965
NCI-H1703	0.934
NCI-H1734	0.946
NCI-H1755	1.02
NCI-H1793	0.82
NCI-H1915	0.975
NCI-H1944	0.873
NCI-H1975	0.989
NCI-H1993	0.861
NCI-H2009	0.967
NCI-H2023	0.837
NCI-H2085	0.945
NCI-H2087	1.07

Same assay, conditions: 0.253 µM

Cell Line	relative viability
LXF-289	1.05
NCI-H23	0.95
NCI-H322M	0.937
NCI-H358	0.914
NCI-H460	1.01
NCI-H520	0.975
NCI-H596	0.942
NCI-H647	0.912
NCI-H650	1.01
NCI-H661	1.01
NCI-H727	0.9
NCI-H838	1.02
NCI-H1299	1.03
NCI-H1355	0.941
NCI-H1395	0.884
NCI-H1437	1.01

Cell Line	relative viability
NCI-H1563	0.925
NCI-H1650	0.874
NCI-H1651	0.983
NCI-H1666	0.963
NCI-H1703	1.06
NCI-H1734	0.988
NCI-H1755	1.08
NCI-H1793	0.906
NCI-H1915	1
NCI-H1944	0.993
NCI-H1975	0.92
NCI-H1993	0.965
NCI-H2009	0.987
NCI-H2023	1.02
NCI-H2085	0.966
NCI-H2087	0.984

Same assay, conditions: 0.8 µM

Cell Line	relative viability
LXF-289	0.997
NCI-H23	0.982
NCI-H322M	0.939
NCI-H358	0.977
NCI-H460	1.02
NCI-H520	1.03
NCI-H596	1.03
NCI-H647	1.01
NCI-H650	0.948
NCI-H661	0.963
NCI-H727	0.958
NCI-H838	0.997
NCI-H1299	1.01
NCI-H1355	1.01
NCI-H1395	0.889
NCI-H1437	1.01

Cell Line	relative viability
NCI-H1563	0.904
NCI-H1650	0.946
NCI-H1651	0.978
NCI-H1666	0.919
NCI-H1703	1.06
NCI-H1734	1.11
NCI-H1755	0.96
NCI-H1793	0.938
NCI-H1915	1.01
NCI-H1944	1.02
NCI-H1975	0.98
NCI-H1993	1.01
NCI-H2009	1
NCI-H2023	0.99
NCI-H2085	0.995
NCI-H2087	1.09

Same assay, conditions: 2.53 µM

Cell Line	relative viability
LXF-289	1.06
NCI-H23	1
NCI-H322M	0.97
NCI-H358	0.984
NCI-H460	0.997
NCI-H520	1.04
NCI-H596	0.987
NCI-H647	1.06
NCI-H650	0.841
NCI-H661	1.05
NCI-H727	0.713
NCI-H838	0.937
NCI-H1299	0.98
NCI-H1355	1.13
NCI-H1395	1.01
NCI-H1437	0.99

Cell Line	relative viability
NCI-H1563	0.951
NCI-H1650	0.889
NCI-H1651	0.959
NCI-H1666	0.971
NCI-H1703	0.967
NCI-H1734	1.08
NCI-H1755	1.02
NCI-H1793	1.2
NCI-H1915	1.03
NCI-H1944	1.22
NCI-H1975	0.962
NCI-H1993	1.12
NCI-H2009	0.97
NCI-H2023	1
NCI-H2085	0.935
NCI-H2087	1.05

Same assay, conditions: 8 µM

Cell Line	relative viability
LXF-289	0.979
NCI-H23	0.72
NCI-H322M	0.621
NCI-H358	0.691
NCI-H460	0.651
NCI-H520	0.813
NCI-H596	0.696
NCI-H647	0.758
NCI-H650	0.556
NCI-H661	0.903
NCI-H727	0.62
NCI-H838	0.754
NCI-H1299	0.81
NCI-H1355	0.749
NCI-H1395	0.561
NCI-H1437	0.747

Cell Line	relative viability
NCI-H1563	0.88
NCI-H1650	0.297
NCI-H1651	0.926
NCI-H1666	0.998
NCI-H1703	0.822
NCI-H1734	0.758
NCI-H1755	1.03
NCI-H1793	0.825
NCI-H1915	0.883
NCI-H1944	0.973
NCI-H1975	0.638
NCI-H1993	0.89
NCI-H2009	0.605
NCI-H2023	0.559
NCI-H2085	0.856
NCI-H2087	0.811

What follows are cell lines tested with O=C(O)C(Cc1ccccc1[N+](=O)[O-])=NNc1nc(-c2ccc(Cl)c(Cl)c2)cs1 (mixture of isomers) [4EGI-1] in the same assay as above. Details: 0.5 µM.
Procedure, shortened: as §1

Cell Line	relative viability
LXF-289	1.03
NCI-H23	1.1
NCI-H322M	0.94
NCI-H358	1.01
NCI-H460	1.03
NCI-H520	1.24
NCI-H596	1.19
NCI-H647	1.01
NCI-H650	1.12
NCI-H661	0.975
NCI-H727	1.06
NCI-H838	1.03
NCI-H1299	1.02
NCI-H1355	1.04
NCI-H1395	1.02
NCI-H1437	1.04

Cell Line	relative viability
NCI-H1563	1.1
NCI-H1650	1.12
NCI-H1651	1.03
NCI-H1666	1.05
NCI-H1703	1.34
NCI-H1734	1.06
NCI-H1755	1.04
NCI-H1793	1.05
NCI-H1915	1.02
NCI-H1944	1.03
NCI-H1975	1.02
NCI-H1993	1
NCI-H2009	1.05
NCI-H2023	1.27
NCI-H2085	1.06
NCI-H2087	1.24

Same assay, conditions: 1.581 µM

Cell Line	relative viability
LXF-289	1.01
NCI-H358	0.767
NCI-H520	0.952
NCI-H596	0.788
NCI-H661	0.911
NCI-H727	0.991
NCI-H1299	1.01
NCI-H1355	0.93
NCI-H1437	0.969
NCI-H1563	0.875
NCI-H1651	0.906
NCI-H1666	0.942
NCI-H1703	1.08
NCI-H1734	0.949
NCI-H1755	1.04
NCI-H1793	0.95
NCI-H1915	0.738
NCI-H1975	0.904
NCI-H1993	0.847
NCI-H2009	1.02
NCI-H2085	1.01
NCI-H2087	1.05

Same assay, conditions: 5 µM

Cell Line	relative viability
LXF-289	0.98
NCI-H23	1.06
NCI-H322M	1.05
NCI-H358	0.998
NCI-H460	1.06
NCI-H520	1.16
NCI-H596	1.14
NCI-H647	1.1
NCI-H650	1.03
NCI-H661	0.974
NCI-H727	0.909
NCI-H838	1.02
NCI-H1299	1.01
NCI-H1355	0.948
NCI-H1395	1.2
NCI-H1437	0.947

Cell Line	relative viability
NCI-H1563	0.976
NCI-H1650	1.03
NCI-H1651	1.01
NCI-H1666	1.09
NCI-H1703	1.12
NCI-H1734	1.14
NCI-H1755	0.957
NCI-H1793	1.31
NCI-H1915	1.05
NCI-H1944	0.996
NCI-H1975	1
NCI-H1993	0.908
NCI-H2009	1.07
NCI-H2023	1.1
NCI-H2085	1.03
NCI-H2087	0.975

Same assay, conditions: 15.81 µM

Cell Line	relative viability
LXF-289	0.864
NCI-H23	1.03
NCI-H322M	0.75
NCI-H358	0.629
NCI-H460	0.847
NCI-H520	0.917
NCI-H596	0.954
NCI-H647	0.855
NCI-H650	0.959
NCI-H661	0.583
NCI-H727	0.795
NCI-H838	0.912
NCI-H1299	1.03
NCI-H1355	0.862
NCI-H1395	0.929
NCI-H1437	0.592

Cell Line	relative viability
NCI-H1563	0.893
NCI-H1650	0.419
NCI-H1651	0.95
NCI-H1666	0.781
NCI-H1703	0.928
NCI-H1734	0.831
NCI-H1755	0.896
NCI-H1793	0.765
NCI-H1915	0.972
NCI-H1944	0.738
NCI-H1975	0.996
NCI-H1993	0.616
NCI-H2009	1.02
NCI-H2023	0.376
NCI-H2085	0.799
NCI-H2087	0.694

Same assay, conditions: 50 µM

Cell Line	relative viability
LXF-289	0.573
NCI-H23	0.298
NCI-H322M	0.5
NCI-H358	0.16
NCI-H460	0.25
NCI-H520	0.64
NCI-H596	0.594
NCI-H647	0.446
NCI-H650	0.753
NCI-H661	0.467
NCI-H727	0.59
NCI-H838	0.342
NCI-H1299	0.828
NCI-H1355	0.566
NCI-H1395	0.614
NCI-H1437	0.326

Cell Line	relative viability
NCI-H1563	0.625
NCI-H1650	0.223
NCI-H1651	0.753
NCI-H1666	0.436
NCI-H1703	0.571
NCI-H1734	0.353
NCI-H1755	0.622
NCI-H1793	0.439
NCI-H1915	0.633
NCI-H1944	0.574
NCI-H1975	0.768
NCI-H1993	0.573
NCI-H2009	0.24
NCI-H2023	0.129
NCI-H2085	0.663
NCI-H2087	0.256
